Measured values: patent publication US20250049888A1, “USE OF THE NEGR1 PROTEIN AND BIOLOGICALLY ACTIVE FRAGMENTS THEREOF IN THE THERAPEUTIC TREATMENT OF ALK-RELATED DISEASES” (FONDAZIONE TELETHON ETS (70%), priority 2021, published 2025)

Key:
ERK1/2 = ERK1/2 phosphorylation in N2a cells, western or dot blotting; assay type: cell-based, murine; conditions: 10 minutes; for ERK1/2 phosphorylation (phospho-ERK/ERK): synthetic peptides, 10 μM
Procedure: Protein level and relative phosphorylation was assessed by western blotting. Briefly, upon a wash in PBS, cells were solubilized in lysis buffer (150 mM NaCl, 50 mM HEPES, 0.5% NP40, 1% sodium-deoxycholate). After 1 hour under mild agitation, the lysate was clarified by centrifugation for 20 min at 16,000 g. All experimental procedures were performed at 4° C. Protein concentrations were evaluated via Bradford assay (Bio-Rad, USA). For Western blotting experiments, an equal amount of proteins was diluted with 0.25% 5× Laemmli buffer. The samples were separated on 10% SDS-PAGE gels which were transferred onto nitrocellulose membrane (Sigma-Aldrich) at 80 V for 120 min at 4° C. Primary antibodies were: Beta-actin (Santa Cruz Biotechnology, sc-47778), ALK (Santa Cruz Biotechnology, sc-398791), N-myc (Santa Cruz Biotechnology, sc-56729), Phospho-p44/42 MAPK (Erk1/2) (Thr202/Tyr204) (Cell Signaling Technology), p44/42 MAPK (Erk1/2) (137F5) Rabbit mAb (Cell Signaling Technology), Akt (pan) (11E7) Rabbit mAb (Cell Signaling Technology), Phospho-Akt (Ser473) (D9E) XP® Rabbit mAb (Cell Signaling Technology), S6 Ribosomal Protein (5G10) Rabbit mAb (Cell Signaling Technology). Antibodies were applied overnight in blocking buffer (20 mM Tris, pH 7.4, 150 mM NaCl, 0.1% Tween 20, and 5% nonfat dry milk). Proteins were detected using the ECL prime detection system (GE Healthcare). The ECL signals were acquired with the imaging ChemiDoc Touch system (Bio Rad Laboratory Italy, Segrate, Italy). The optical density of the specific bands was quantified with ImageLab software (Bio Rad).
ALK triggers a signaling cascade that involves ERK and AKT kinases phosphorylation.
Additionally, the N2a cells were treated with the following synthetic peptides: the synthetic version of PepA-1 (synPepA-1), a scramble peptide including the GDKISV sequence (scr-GDKISV, substituting the W, tryptophan, that can undergo oxidation, with I, Isoleucine), and a scramble peptide (10 μM, 10 minutes). […]

N2a cells [1] = assay: N2a cell growth, MTT assay; assay type: cell-based, murine
Procedure: (§1) The 3-(4,5-dimethylthiazol-2-yl)-2,5-diphenyl tetrazolium bromide (MTT) assay was performed to evaluate culture vitality. N2a cells were cultured in a 96-well plate at a concentration of 5×10^3 cell/cm^2. Treatment condition is indicated in the result section. At the end of the treatment, the MTT solution was added to the cell medium at a final concentration of 0.25 mg/mL. The incubation lasted 30 minutes at 37° C. Next, the medium was removed and the formazan precipitates were collected in DMSO (200 μL). The absorbance was measured at 570 nm using a spectrophotometer (Varioskan LUX, Thermofisher) as a proxy for cell viability. Relative cell viability fold is expressed over the control condition.
At the physiological level, Negr1 exists as a GPI-anchored membrane-bound protein and as a soluble protein released upon metalloprotease cleavage (Sanz et al. 2015; Pischedda and Piccoli 2015). Thus, the inventors studied whether ectopic treatment with soluble recombinant Negr1 (Negr1) might modulate cancer cell growth. […] At DIV5, cellular growth was evaluated by MTT assay.
To further narrow down the minimal biologically active sequence within PepA, the PepA structure was analysed in silico. […] At DIV5, cellular growth was evaluated by MTT assay.

N2a cells [2] = assay: N2a proliferation, cell number at DIV5; assay type: cell-based, murine; conditions: 200 ng daily, vs GFP
Procedure: Next, 10,000 naive N2a cells were seeded and treated daily with 200 ng Negr1, PepA, PepB, PepC, or GFP. At DIV5, cell number was evaluated.

[3] = system: A549 (adenocarcinoma alveolar basal epithelial cells); assay: Growth of human cancer-derived cell line, MTT assay; assay type: cell-based; conditions: 200 ng daily, vs GFP
Procedure: as §1
(§2) Next, the capability of Negr1 and peptide PepA to halt the growth of human cancer-derived cell lines, namely U87 (glioblastoma), SK-Mel5 (melanoma), MCF7 (breast adenocarcinoma), A549 (adenocarcinoma alveolar basal epithelial cells), and SH-SY5Y (neuroblastoma) was tested. To this aim, each line was treated daily with 200 ng GFP, rNegr1, or PepA. At DIV5, cellular growth was evaluated by MTT assay. […] Such results are in good agreement with the expression of the receptor ALK, that has been experimentally detected in cancer cell lines of ectodermal origin (including small cell lung carcinoma, breast carcinoma, melanoma, neuroblastoma, and glioblastoma) (Dirks et al. 2002).

[4] = system: MCF7 (breast adenocarcinoma); assay: as above; assay type: cell-based; conditions: 200 ng daily, vs GFP
Procedure: as §1, §2

SH-SY5Y (neuroblastoma) = assay: as above; assay type: cell-based; conditions: 200 ng daily, vs GFP
Procedure: as §1, §2

SK-Mel5 (melanoma) = assay: as above; assay type: cell-based; conditions: 200 ng daily, vs GFP
Procedure: as §1, §2

U87 (glioblastoma) = assay: as above; assay type: cell-based; conditions: 200 ng daily, vs GFP
Procedure: as §1, §2

DGASKGAWLNRSSIIFAGVWGSKDDPRVSISTL (PepA-1-6aa scramble) [reference compound]
ERK1/2 phosphorylation (phospho-ERK/ERK) (ERK1/2): did not alter ERK phosphorylation

NRGDKISVSVSSSSGGRAWDWDIAKPGLAILTF (Scramble-GDKISV) [scr-GDKISV]
ERK1/2 phosphorylation (phospho-ERK/ERK) (ERK1/2): reduced ERK1/2 phosphorylation

Negr1: soluble recombinant full-length Negr1 protein, Strep-FLAG tagged, expressed and purified from HEK293 cells
N2a growth (MTT) at DIV5 (N2a cells [1]; 200 ng daily, vs GFP): significantly reduced N2a growth | N2A growth / cellular vitality (MTT) at DIV5 (N2a cells [1]; 3 μM daily, vs vehicle (Lorlatinib) or GFP (rNegr1, PepA-1)): impaired N2A growth to a similar extent | N2a proliferation (cell number) at DIV5 (N2a cells [2]): significantly reduced N2a proliferation | growth of A549 cells (MTT) at DIV5 [3]: significantly reduce the growth | growth of MCF7 cells (MTT) at DIV5 [4]: significantly reduce the growth | growth of SH-SY5Y cells (MTT) at DIV5 (SH-SY5Y (neuroblastoma)): significantly reduce the growth | growth of SK-Mel5 cells (MTT) at DIV5 (SK-Mel5 (melanoma)): significantly reduce the growth | growth of U87 cells (MTT) at DIV5 (U87 (glioblastoma)): significantly reduce the growth

GDKWSV (minimum active sequence) [GDKWSV peptide]
ERK1/2 phosphorylation (dot-blot) (ERK1/2; 30 nM): severe reduction of ERK1/2 phosphorylation
